Tests used:
[1] = system: flattened spinal cord organoids (fSCOs); assay: MEA mean firing rate of flattened spinal cord organoids after capsaicin and short-term DAMGO; type: cell-based, human
Experimental: (§1) After 10 days of growing, the flattened organoids as developed in accordance with the present disclosure were put into contact with bottom electrodes for measuring electrical and neuron activity. Recording of the spinal cord organoids' electrical activity was performed by using the Axion Mestro Edge (Axion inc). The spinal cord organoids were kept at 37° C. maintained by an internal heater and infused with 5% CO2. To determine the mean firing rate of a spinal cord organoid, the 3-minute MEA recording was repeated 5 times. The final mean firing rate of the organoid was calculated as the average mean firing rate of the 3 most consistent recordings among the 5 recordings. To reduce the variation brought by adding substance, the medium was also refreshed before measuring mean firing rate baseline. The substance was first diluted into ScM IV at 2× of the desired concentration, then half of the medium was replaced with the 2× concentrated solution to reach the desired concentration.
Capsaicin, a transient receptor potential cation channel subfamily V member 1 (TRPV1) agonist, was applied to fSCOs to model pain responses. […] Next, capsaicin and different concentrations of DAMGO together to test the pain relief effects of different opioids doses. […] As the opioids doses increase, the fSCOs' firing rates decreased, and the organoids reached minimal firing rates when the concentration was higher than 1 μM.

[2] = system: flattened spinal cord organoids (fSCOs); assay: Chronic opioid induced hyperalgesia model: 8-day DAMGO administration, MEA mean firing rate response to capsaicin; type: cell-based, human
Experimental: as §1
The fSCOs of the present disclosure were exposed to prolonged opioid administration to test the tolerance of the organoids to opioid induced hyperalgesia. The fSCOs were treated with DAMGO (500 nM) for 8 days and their responses to pain modulators were tested every other day. […] Organoids treated together with DAMGO and Naloxone, a μ-opioid receptor antagonist, were also tested to determine whether the Naloxone could reduce the opioid induced hyperalgesia.

μ-opioid receptor = molecular target: T1, μ-opioid receptor (Homo sapiens, UniProt P35372); assay: Immunofluorescence staining of μ-opioid receptor expression after prolonged administration; type: cell-based; conditions: prolonged DAMGO treatment group (500 nM, 8 days)
T1 construct: confirm that the presence of neuron populations that express μ-opioid receptors; endogenous in cells; host or cells: flattened spinal cord organoids (fSCOs) derived from WA09 cells
T1 sequence (P35372 whole entry): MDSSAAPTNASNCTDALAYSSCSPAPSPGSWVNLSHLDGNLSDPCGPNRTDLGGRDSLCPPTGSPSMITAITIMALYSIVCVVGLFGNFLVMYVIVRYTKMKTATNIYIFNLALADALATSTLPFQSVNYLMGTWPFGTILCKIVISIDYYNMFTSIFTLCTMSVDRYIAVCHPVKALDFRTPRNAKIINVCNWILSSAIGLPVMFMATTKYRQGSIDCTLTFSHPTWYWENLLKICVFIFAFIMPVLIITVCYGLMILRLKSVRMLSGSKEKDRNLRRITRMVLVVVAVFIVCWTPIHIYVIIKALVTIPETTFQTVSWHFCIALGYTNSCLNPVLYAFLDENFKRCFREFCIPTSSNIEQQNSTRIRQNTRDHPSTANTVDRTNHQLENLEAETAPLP
Experimental: To first validate that the flattened organoids could be utilized to model pain relief, first immunofluorescence staining was used to confirm that the presence of neuron populations that express μ-opioid receptors. Sectioned samples were placed onto charged glass slides and washed three times with 1×PBS. The samples were then treated with 3N hydrochloric acid (HCl) for 15 minutes for antigen retrieval. Following HCl treatment, the samples were washed again twice with 1×PBS and subjected to blocking (0.3% Triton-X100, 5% normal goat serum in 1×PBS) for 1 hour, followed by primary antibody incubation in a humidified chamber at 4° C. overnight. The samples were then washed 3 times with 1×PBS followed by secondary antibody incubation at room temperature for 1 hour before being washed and coverslipped with gold anti-fade mounting medium containing DAPI (Invitrogen).

| SMILES | % change From Baseline in Mean Firing Rate (Hz) ([1]; Capsaicin) [%] | increase of mean firing rate of organoids after stimulation by capsaicin ([1]; capsaicin alone, fSCOs, MEA) [%] | % change From Baseline in Mean Firing Rate (Hz) ([1]; Capsaicin + 100 nM DAMGO) | % change From Baseline in Mean Firing Rate (Hz) ([1]; Capsaicin + 500 nM DAMGO) [%] | % change From Baseline in Mean Firing Rate (Hz) ([1]; Capsaicin + 1 uM DAMGO) [%] | % change From Baseline in Mean Firing Rate (Hz) ([1]; Capsaicin + 10 uM DAMGO) [%] | DAMGO concentration at which organoids reached minimal firing rates ([1]; capsaicin together with DAMGO) | firing rate of spinal cord organoids versus baseline ([1]; capsaicin together with minimal dose of DAMGO (100 nM)) | firing rate versus baseline after capsaicin plus low dose of DAMGO (100 nM) ([2]; after 8-day administration, Ctrl and DAMGO+Naloxone group) | DAMGO needed to eliminate pain activity and return to activity baseline ([2]; after 8-day administration, organoids in the DAMGO group (500 nM)) | mean firing rate increase after capsaicin treatment ([2]; day 6 of DAMGO (500 nM) treatment, control 48%) [%] | mean firing rate increase after capsaicin treatment ([2]; day 8 of DAMGO (500 nM) treatment, control 39%) [%] | mean firing rate increase after capsaicin treatment versus control group ([2]; first 4 days of DAMGO (500 nM) treatment) | μ-opioid receptor expression (μ-opioid receptor) |
| --- | --- | --- | --- | --- | --- | --- | --- | --- | --- | --- | --- | --- | --- | --- |
| COc1cc(CNC(=O)CCCC/C=C/C(C)C)ccc1O [Capsaicin] | −0.1 | 35.4 | – | – | – | – | – | – | – | – | – | – | – | – |
| C[C@@H](NC(=O)[C@@H](N)Cc1ccc(O)cc1)C(=O)NCC(=O)N(C)[C@@H](Cc1ccccc1)C(=O)NCCO [DAMGO] | – | – | +0.3% | −0.2 | −0.42 | −0.4 | higher than 1 μM | dropped below baseline | reduce the firing rate below baseline | more than 1 μM | 73 | 93 | no significant difference | downregulated |

From patent US20250290032A1, “DEVICE AND METHODS FOR ENGINEERING AND MEASURING FLATTENED 3D CELL CULTURES” (The Trustees of Indiana University, priority 2022, published 2025)
